Laboratory results taken from patent US20040053282A1, “Method of examining allergic disease” (priority 2000, published 2004).

B1: IFNγ: cytokine interferon γ (protein, UniProt P01579 24-161, looked up)
Interferon gamma: QDPYVKEAENLKKYFNAGHSDVADNGTLFLGILKNWKEESDRKIMQSQIVSFYFKLFKNFKDDQSIQKSVETIKEDMNVKFFNSNKKKRDDFEKLTNYSVTDLNVQRKAIHELIQVMAELSPAAKTGKRKRSQMLFRG
B2: IL-4: cytokine interleukin 4 (protein, UniProt P05112 25-153, looked up)
Interleukin-4: HKCDITLQEIIKTLNSLTEQKTLCTELTVTDIFAASKNTTEKETFCRAATVLRQFYSHHEKDTRCLGATAQQFHRHKQLIRFLKRLDRNLWGLAGLNSCPVKEANQSTLENFLERLKTIMREKYSKCSS

Legend:
[1] = test system: mouse intersectin 2 gene; assay: Intersectin 2 gene expression in ear tissue of DNFB-coated mouse allergic reaction model (TaqMan, ABI 7700); format: in vivo; conditions: mouse ear tissue mRNA, day 6, corrected with 18S gene, value of CONT. taken as 1; four mice each; prednisolone oral day 0 to day 6
Description: Using a 2,4-dinitrofluorobenzene (DNFB) coated mouse as a model for an allergic reaction, changes in the expression level of the intersectin 2 gene in the mouse were observed. DNFB is a substance that is used as a hapten to cause allergic dermatitis reaction in a laboratory animal such as a mouse.
Day 0: The abdominal region was shaved by an electric clipper and 25 μL of the sensitizing solution was applied to the abdominal region.
Day 1: In a similar manner to the previous day, 25 μL of the sensitizing solution was applied to the abdominal region.
Day 5: 5 μL/ear of challenge solution was applied to both ears. […]
The expression level of the intersectin 2 gene was quantified by the TaqMan method (as mentioned above) using ABI 7700 and using mRNA sample extracted from the mouse ear tissue. […]
PCR was carried out using 25 μL of 2× Master Mix without UNG, 1.25 μL of 40×MultiScribe and RNase Inhibitor Mix, 0.25 μL of 10 μM primer, and 0.625 μL of 4 μM TaqMan Probe derived from One-step RT-PCR Master Mix Reagents (PE Biosystems), and RNA (2 ng)+DEPC resulting in total volume of 50 μL. […] To correct the differences of cDNA concentration among the samples, a similar quantitative analysis was performed on the 18S gene, and the value for the gene of interest was divided by the value for 18S, and indicated as taking the value of CONT. as 1. […]

[2] = test system: "1835-17" (intersectin 2 gene); assay: Change in gene expression in human peripheral blood eosinophils due to stimulation by cytokines (TaqMan, ABI 7700); format: cell-based; conditions: eosinophils of a healthy subject, cytokine 0.1, 1 and 10 ng/ml, 3 hours culture, GAPDH corrected, FIG. 4
Description: The change in gene expression due to cytokine stimulation in eosinophils isolated from 100 ml of peripheral blood from a healthy subject was studied. Isolation of eosinophils was carried out as described above. Eosinophils were plated onto a 24-well plate (1×10^6 cells/mL). The plate was pre-coated with 1% BSA (immobilizing blocking buffer) at room temperature for 2 hours in order to prevent activation due to adhesion of eosinophils. As cytokines, 0.1, 1, and 10 ng/ml each of interleukin 5 (IL-5), interleukin 4 (IL-4), interferon γ (IFNγ), granulocyte macrophage colony stimulating factor (GM-CSF), and eotaxin were added to each well, and this was cultured for 3 hours in DMEM supplemented with 10% FCS. All of these cytokines are those considered to be related to activation of eosinophils and onset of allergies.
RNAs were prepared in the same manner as in Example 1 for each of the treated eosinophils, and were subjected to gene expression analysis. The primers, probes, and such used were the same as described above. The result at 3 hours after starting the culture is shown in FIG. 4 (value was corrected with GAPDH for the number of copies per 1 ng of RNA).

Molecule	relative expression level of intersectin 2 gene (Average) [1]	expression of "1835-17" (intersectin 2 gene) [2]
O=[N+]([O-])c1ccc(F)c([N+](=O)[O-])c1 [DNFB, 2,4-dinitrofluorobenzene]	2.04	
IL-5: cytokine interleukin 5		increases
C[C@]12C=CC(=O)C=C1CC[C@@H]1[C@@H]2[C@@H](O)C[C@@]2(C)[C@H]1CC[C@]2(O)C(=O)CO [S, prednisolone]	1.04	
B1		induced
B2		induced
